Measured values as given in patent US4663347A, “Benzofuran 2-carboxylic acid esters useful as inhibitors of leukotriene biosynthesis” (Merck Frosst Canada, Inc., priority 1985, dated 1987).
Values after ≈ are worked out from the molar mass of the structure shown.

Columns and labels:
[1] = tested on: leukotriene biosynthesis (mouse peritoneal macrophages); assay: Mouse Macrophage Assay (leukotriene inhibition); format: cell-based; conditions: zymosan stimulated, read-out: LEUKOTRIENE INHIBITION MACROPHAGE ED50
Method: Representative compounds of Formula I have been tested using the following assay to determine their mammalian leukotriene biosynthesis inhibiting activity.
Mouse peritoneal macrophages were treated sequentially with arachidonic acid (labelled with tritium); the compound being evaluated as an inhibitor, and a stimulator (zymosan). Metabolites derived from arachidonic acid (PGE2, 6-keto PG-F1α and Leukotriene C4) were separated from the incubation medium by extraction and chromatography, and then quantitated by determining the amount of radioactivity (cpm) associated with each of them. […] (This protocol is identical to that described in the reference except that the radioactivity herein associated with the LTC4 was determined by counting an aliquot of the final aqueous solution directly rather than chromatographying it first).
Reference: Humes, J. L. et al., J. Biol. Chem. 257, 1591-4 (1982).
The following table (Table II) reflects the leukotriene biosynthesis inhibiting ability of selected compounds of Formula I.

asthmatic rats = assay: Asthmatic Rat Assay (duration of antigen-induced dyspnea); format: in vivo
Source text: Rats were obtained from an inbred line of asthmatic rats. Both female and male rats from 200 to 300 g were used.
Egg albumin (EA), grade V, crystallized and lyophilized, was obtained from Sigma Chemical Co., St. Louis, Bordetella pertussis vaccine, containing 30×10^9 killed bacteria per ml was obtained from the Institut Armand-Frappier, Laval des Rapides, Quebec. Aluminum hydroxide was obtained from the Regis Chemical Company, Chicago.
The challenge and subsequent respiratory recordings were carried out in a clear plastic box with internal dimensions 10×6×4 inches. The top of the box was removable; in use, it was held firmly in place by four clamps and an airtight seal was maintained by a soft rubber gasket. […] A Fleisch No. 0000 pneumotachograph was inserted into one end of the box and coupled to a Grass volumetric pressure transducer (PT5-A) which was then connected to a Beckman Type R Dynograph through appropriate couplers. While aerosolizing the antigen, the outlets were open and the pneumatachograph was isolated from the chamber. The outlets were closed and the pneumotachograph and the chamber were connected during the recording of the respiratory patterns. […]
Rats were sensitized by injecting (s.c.) 1 ml of a suspension containing 1 mg EA and 200 mg aluminum hydroxide in saline. […] Rats were then exposed to an aerosol of 3% EA in saline for exactly 1 minute, then their respiratory profiles were recorded for a further 25-30 minutes. The duration of continuous dyspnea was measured from the respiratory recordings.
Compounds were generally administered either intraperitoneally 1 hour prior to challenge or orally 11/2 hours prior to challenge. […] Their activity was determined in terms of their ability to decrease the duration of symptoms of dyspnea in comparison with a group of vehicle-treated controls. Usually, a compound was evaluated at a series of doses and an ED50 was determined. […]

[2] = tested on: PAF-induced hyperalgesia (female Sprague-Dawley rats); assay: PAF-Induced Hyperalgesia Assay; format: in vivo, rat; conditions: p.o.
Method: PAF-Induced Hyperalgesia Assay
Female Sprague-Dawley rats, 35-40 g were fasted overnight. Platelet activating factor, PAF, (L-lecithin B-acetyl O-alkyl) 1 μg/0.1 ml was given by subplantar injection in the rat paw. The compounds to be evaluated were homogenized in Aqueous Vehicle (0.9% benzyl alcohol, 0.5% Tween 80 and 0.4% methylcellulose) and administered orally in a volume of 0.1 ml, 30 minutes prior to PAF.
Animals were tested 1, 2, 3 and 4 hours after PAF administration. The vocalization threshold, defined as the pressure (mmHg) needed to evoke a squeak response, was recorded for both the injected and contralateral paw. No animal was subjected to pressure greater than 60 mmHg. Hyperalgesia is defined as a decrease in vocalization threshold as compared to a normal paw. Percent inhibition of hyperalgesia was calculated as the proportion of animals with vocalization thresholds greater than 200% of controls.

IC50 [1] [µg/mL]	Compound	also measured
2.5 to 5 (≈ 8.13 to 16.3 µM)	CCOC(=O)c1oc2cccc(OC(=S)N(C)C)c2c1C	
5 (≈ 16.3 µM)	CCOC(=O)c1oc2cccc(SC(=O)N(C)C)c2c1C	
0.2 (≈ 0.647 µM)	CC(=O)Oc1cccc2oc(C(=O)Nc3ccccc3)c(C)c12	
0.2 (≈ 0.582 µM)	CC(=O)Oc1cccc2oc(C(=O)Nc3ccc(Cl)cc3)c(C)c12	
5 (≈ 26 µM)	Cc1c(C(=O)O)oc2cccc(O)c12	
0.2 (≈ 0.908 µM)	CCOC(=O)c1oc2cccc(O)c2c1C [drawing 82]	
1 (≈ 4.03 µM)	Cc1c(C(=O)OC(C)(C)C)oc2cccc(O)c12 [drawing 83]	
5 (≈ 19.1 µM)	CCOC(=O)c1oc2cccc(OC(C)=O)c2c1C [drawing 86]	
1 to 5 (≈ 3.74 to 18.7 µM)	Cc1c(C(=O)Nc2ccccc2)oc2cccc(O)c12 [drawing 90]	
1 (≈ 3.54 µM)	Cc1c(C(=O)NNc2ccccc2)oc2cccc(O)c12 [drawing 91]	
1 (≈ 3.16 µM)	Cc1c(C(=O)NNc2ccc(Cl)cc2)oc2cccc(O)c12 [drawing 92]	
	CCOC(=O)c1oc2cccc(O)c2c1C [drawing 93]	ASTHMATIC RAT (% inhibition of duration of dyspnea) (asthmatic rats; 5 mg/kg, i.v.): 38%; PAF HYPERALGESIA (percent inhibition of hyperalgesia) ([2]; 10 mg/kg): 10%
	Cc1c(C(=O)OC(C)(C)C)oc2cccc(O)c12 [drawing 94]	ASTHMATIC RAT (% inhibition of duration of dyspnea) (asthmatic rats; 15 mg/kg, p.o.): 41%; PAF HYPERALGESIA (percent inhibition of hyperalgesia) ([2]; 10 mg/kg): 60%
	CCOC(=O)c1oc2cccc(OC(C)=O)c2c1C [drawing 95]	ASTHMATIC RAT (% inhibition of duration of dyspnea) (asthmatic rats; 5 mg/kg, i.v.): 63%; PAF HYPERALGESIA (percent inhibition of hyperalgesia) ([2]; 10 mg/kg): 50%
	Cc1c(C(=O)Nc2ccccc2)oc2cccc(O)c12 [drawing 96]	PAF HYPERALGESIA (percent inhibition of hyperalgesia) ([2]; 1.03 mg/kg): 60%
	Cc1c(C(=O)NNc2ccccc2)oc2cccc(O)c12 [drawing 97]	PAF HYPERALGESIA (percent inhibition of hyperalgesia) ([2]; 20 mg/kg): 50%
	Cc1c(C(=O)NNc2ccc(Cl)cc2)oc2cccc(O)c12 [drawing 98]	PAF HYPERALGESIA (percent inhibition of hyperalgesia) ([2]; 1 mg/kg): 60%
